Consider 20 molecules from US20140107109A1, “AMINO-DIHYDROTHIAZINE AND AMINO-DIOXIDO DIHYDROTHIAZINE COMPOUNDS AS BETA-SECRETASE ANTAGONISTS AND METHODS OF USE” (Amgen Inc., priority 2012, published 2014).

Read-outs that look alike come from different tables or passages of the source.

Experiment [1] addresses Beta Secretase enzyme (BACE1) (Homo sapiens, UniProt P56817). The experiment in a line: In vitro enzymatic BACE FRET assay. The class given is biochemical. As to conditions: read-out: BACE1 FRET assay IC50. The gist of the method: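 Readout: dequenched fluorescence (ex 488 nm/[…]) after neutralizing with Tris buffer. Reactions, begun by adding 50 nM quenched peptide substrate spanning the BACE cleavage site, were incubated one hour at pH 4.2 in 0.05 M acetate with 100 uM genapol and 10% final DMSO.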

In experiment [2] the test system is Aβ40 in conditioned medium of cells stably expressing Amyloid Precursor Protein (APP). Briefly: In vitro BACE cell-based assay (HEK cell assay), Aβ40 sandwich ELISA. The gist of the method: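 Aβ40 in conditioned medium was quantified by time-resolved fluorescence sandwich ELISA (pAb40 capture 3 h at 4 °C, biotin-6E10 detection 2 h at 4 °C) after 24 h compound exposure of APP-expressing cells. Doses spanned 10 points from 100 μM or 10 μM top, 0.1% DMSO; IC50 was derived from percent of control.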
Background: An ELISA detects its analyte on a solid surface through an enzyme-linked reagent.

The next experiment addresses T1, Cathepsin D (Cat D) (Homo sapiens, UniProt P07339).
T1 construct: Recombinant Cat D was expressed in CHO cells; made in house; host or cells: CHO cells
Briefly: In vitro enzymatic Cathepsin D (Cat D) FRET assay. The format is biochemical. As to conditions: read-out: CatD IC50. The gist of the method:
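FRET read-out: a fluorophore/quencher-labelled peptide substrate is cleaved by 9 nM Cat D (recombinant, CHO-expressed) following a one-hour preincubation with inhibitor dilutions in DMSO. Tris buffer added to neutralize pH ends the reaction before fluorescence measurement.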

[3] abbreviates: Homo sapiens, HEK293, average IC50, HEK cell assay.
Where [4] appears, read: Homo sapiens, HEK293, average IC50, cell assay.
[5] abbreviates: Homo sapiens, HEK293, Aβ40, 24 h incubation.

Sequence of Beta Secretase enzyme (BACE1) (P56817 46-501): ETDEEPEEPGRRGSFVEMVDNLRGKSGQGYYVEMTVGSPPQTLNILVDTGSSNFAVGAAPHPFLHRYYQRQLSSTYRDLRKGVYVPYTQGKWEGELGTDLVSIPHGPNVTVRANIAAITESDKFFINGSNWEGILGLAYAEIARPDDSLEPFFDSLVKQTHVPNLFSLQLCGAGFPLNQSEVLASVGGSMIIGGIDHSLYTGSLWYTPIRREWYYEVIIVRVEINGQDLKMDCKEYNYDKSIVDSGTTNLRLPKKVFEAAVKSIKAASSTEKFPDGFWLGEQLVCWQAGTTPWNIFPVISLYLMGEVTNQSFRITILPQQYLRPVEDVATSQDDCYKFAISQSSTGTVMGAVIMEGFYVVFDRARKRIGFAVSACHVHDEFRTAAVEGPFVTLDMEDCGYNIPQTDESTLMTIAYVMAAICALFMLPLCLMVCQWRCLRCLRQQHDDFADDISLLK
T1 sequence (P07339 65-412, species assumed): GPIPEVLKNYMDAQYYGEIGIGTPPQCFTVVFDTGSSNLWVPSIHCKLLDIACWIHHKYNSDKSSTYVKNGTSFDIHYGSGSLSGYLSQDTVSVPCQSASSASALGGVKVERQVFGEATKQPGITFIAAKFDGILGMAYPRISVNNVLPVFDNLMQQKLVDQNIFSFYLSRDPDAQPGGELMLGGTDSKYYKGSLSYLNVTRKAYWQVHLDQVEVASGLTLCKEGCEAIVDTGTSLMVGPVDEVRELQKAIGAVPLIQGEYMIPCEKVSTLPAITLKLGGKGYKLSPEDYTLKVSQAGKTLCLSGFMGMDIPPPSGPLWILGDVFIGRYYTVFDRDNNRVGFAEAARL

For orientation: IC50 means the midpoint of a concentration-inhibition curve. Turning to `C[C@]1(F)C(N)=N[C@](C)(c2cc(NC(=O)c3ncc(Cl)cc3F)ccc2F)CS1(=O)=O` [Example 320, N-(3-((3R,6R)-5-amino-6-fluoro-3,6-dimethyl-1,1-dioxido-3,6-dihydro-2H-1,4-thiazin-3-yl)-4-fluorophenyl)-5-chloro-3-fluoro-2-pyridinecarboxamide], the IC50 is 0.0008 µM in experiment [1] (average IC50, enzyme assay); 0.0789 µM in experiment [2] (setting [3]); greater than 400 µM at Cathepsin D (Cat D).
`CC1(C)C(N)=N[C@](C)(c2cc(Nc3ncc(F)c4cc(Cl)cnc34)cnc2F)CS1(=O)=O` [Example 220, N-(5-((3R)-5-amino-3,6,6-trimethyl-1,1-dioxido-3,6-dihydro-2H-1,4-thiazin-3-yl)-6-fluoro-3-pyridinyl)-3-chloro-5-fluoro-1,7-naphthyridin-8-amine]: the IC50 was less than 0.002 µM in experiment [1] (average IC50, enzyme assay); 0.0033 µM in experiment [2] (setting [4]); 15.2 µM at Cathepsin D (Cat D).
“N-(3-((4aR,7aS)-3-amino-2,2-dimethyl-1,1-dioxido-7,7a-dihydro-2H-furo[3,4-b][1,4]thiazin-4a(5H)-yl)-4-fluorophenyl)-3-chloro-1,7-naphthyridin-8-amine, N-(3-((4aS,7aR)-3-amino-2,2-dimethyl-1,1-dioxido-7,7a-dihydro-2H-furo[3,4-b][1,4]thiazin-4a(5H)-yl)-4-fluorophenyl)-3-chloro-1,7-naphthyridin-8-amine [Example 429]”: the half-maximal inhibitory concentration (IC50) was determined as 0.0046 µM in experiment [1] (average IC50, enzyme assay); 0.157 µM in experiment [2] (average IC50, cell assay); 131 µM on Cathepsin D (Cat D).
Regarding `Cc1cc(Cl)cnc1C(=O)Nc1cnc(F)c([C@]2(C)CS(=O)(=O)C(C)(C)C(N)=N2)c1` [Example 347, N-(5-((3R)-5-amino-3,6,6-trimethyl-1,1-dioxido-3,6-dihydro-2H-1,4-thiazin-3-yl)-6-fluoro-3-pyridinyl)-5-chloro-3-methyl-2-pyridinecarboxamide], the half-maximal inhibitory concentration (IC50) in experiment [1] (average IC50, enzyme assay) turned out to be 0.0011 µM; in experiment [2] (setting [3]), 0.0018 µM; on Cathepsin D (Cat D) it was 71 µM.
As to `CC1(C)C(N)=N[C@](C)(c2cc(Nc3nccc4cc(Cl)cnc34)ccc2F)CS1(=O)=O` [Example 45, N-(3-((3R)-5-amino-3,6,6-trimethyl-1,1-dioxido-3,6-dihydro-2H-1,4-thiazin-3-yl)-4-fluorophenyl)-3-chloro-1,7-naphthyridin-8-amine], the concentration for half-maximal inhibition (IC50) in experiment [1] amounted to 0.00059 µM; in experiment [2] (setting [5]) it was 0.0075 µM; at Cathepsin D (Cat D), 90.4 µM.
`CC1(C)C(N)=N[C@](C)(c2cc(NC(=O)c3ncc(C#N)cc3Cl)ccc2F)CS1(=O)=O` [Example 356, N-(3-((3R)-5-amino-3,6,6-trimethyl-1,1-dioxido-3,6-dihydro-2H-1,4-thiazin-3-yl)-4-fluorophenyl)-3-chloro-5-cyano-2-pyridinecarboxamide]: the IC50 in experiment [1] (average IC50, enzyme assay) is 0.00035 µM; in experiment [2] (setting [3]), 0.0012 µM; at Cathepsin D (Cat D), 710 µM.
In the case of `Cc1cc(OC(F)F)cnc1C(=O)Nc1cc([C@]2(C)CS(=O)(=O)C(C)(C)C(N)=N2)c(=O)n(C)c1` [Example 171, (R)—N-(5-(5-amino-3,6,6-trimethyl-1,1-dioxido-3,6-dihydro-2H-1,4-thiazin-3-yl)-1-methyl-6-oxo-1,6-dihydropyridin-3-yl)-5-(difluoromethoxy)-3-methylpicolinamide], the 50% inhibitory concentration (IC50) in experiment [1] (average IC50, enzyme assay) worked out at 0.00927 µM; in experiment [2] (setting [4]), 0.0083 µM; at Cathepsin D (Cat D), 186 µM.
On to `C[C@@]1(c2cc(NC(=O)c3ccc(Cl)cn3)ccc2F)CS(=O)(=O)C2(CCC2)C(N)=N1` [Example 416, N-(3-((7R)-9-amino-7-methyl-5,5-dioxido-5-thia-8-azaspiro[3.5]non-8-en-7-yl)-4-fluorophenyl)-5-chloro-2-pyridinecarboxamide], for which the IC50 in experiment [1] was 0.00236 µM; in experiment [2] (Homo sapiens, HEK293), 0.0059 µM; on Cathepsin D (Cat D), 59.5 µM.
Turning to `COc1ccc(C(=O)Nc2ccc(F)c([C@]3(C)CS(=O)(=O)C(C)(C)C(N)=N3)c2)c(F)c1` [Example 354, N-(3-((3R)-5-amino-3,6,6-trimethyl-1,1-dioxido-3,6-dihydro-2H-1,4-thiazin-3-yl)-4-fluorophenyl)-2-fluoro-4-methoxybenzamide], the IC50 is 0.0424 µM in experiment [1] (average IC50, enzyme assay); 0.0187 µM in experiment [2] (setting [3]); 1330 µM at Cathepsin D (Cat D).
As to `CC1(C)C(N)=N[C@](C)(c2cc(Oc3nccc(-c4ccccc4)c3C#N)ccc2F)CS1(=O)=O` [Example 293, 2-(3-((3R)-5-amino-3,6,6-trimethyl-1,1-dioxido-3,6-dihydro-2H-1,4-thiazin-3-yl)-4-fluorophenoxy)-4-phenyl-3-pyridinecarbonitrile], the IC50 in experiment [1] (average IC50, enzyme assay) was 0.836 µM; in experiment [2] (setting [3]), 0.68 µM; at Cathepsin D (Cat D), 50.9 µM.
Regarding `Cc1c(C(=O)Nc2ccc(F)c([C@]3(CF)CS(=O)(=O)C(C)(C)C(N)=N3)c2)nc2ccc(Cl)cn12` [Example 158, (S)—N-(3-(5-amino-3-(fluoromethyl)-6,6-dimethyl-1,1-dioxido-3,6-dihydro-2H-1,4-thiazin-3-yl)-4-fluorophenyl)-6-chloro-3-methylimidazo[1,2-a]pyridine-2-carboxamide], the IC50 was found to be 0.00303 µM in experiment [1] (average IC50, enzyme assay); 0.0106 µM in experiment [2] (setting [4]); 4060 µM at Cathepsin D (Cat D).
Regarding `CC1(C)C(N)=N[C@](C)(c2cc(Oc3cc(-c4ccc(C(F)(F)F)cc4)ccn3)ccc2F)CS1(=O)=O` [Example 255, (5R)-5-(2-fluoro-5-((4-(4-(trifluoromethyl)phenyl)-2-pyridinyl)oxy)phenyl)-2,2,5-trimethyl-5,6-dihydro-2H-1,4-thiazin-3-amine 1,1-dioxide], the IC50 in experiment [1] (average IC50, enzyme assay) is 0.663 µM; in experiment [2] (setting [4]), 3.99 µM; on Cathepsin D (Cat D), 50.5 µM.
The like results for `COc1cnc2c(Nc3ccc(F)c([C@]4(CF)CS(=O)(=O)C5(CCC5)C(N)=N4)c3)nccc2n1` [Example 246, N-(3-((7S)-9-amino-7-(fluoromethyl)-5,5-dioxido-5-thia-8-azaspiro[3.5]non-8-en-7-yl)-4-fluorophenyl)-2-methoxypyrido[3,4-b]pyrazin-5-amine] were, in that order, 0.00146 µM, 0.0216 µM and 811 µM.
Turning to `CC1(C)C(N)=N[C@](C)(c2cc(NC(=O)c3cnc(C(F)(F)F)cn3)ccc2F)CS1(=O)=O` [Example 21, N-(3-((3R)-5-amino-3,6,6-trimethyl-1,1-dioxido-3,6-dihydro-2H-1,4-thiazin-3-yl)-4-fluorophenyl)-5-(trifluoromethyl)-2-pyrazinecarboxamide], the IC50 is 0.0074 µM in experiment [1], 0.011 µM in experiment [2] (setting [5]) and greater than 400 µM on Cathepsin D (Cat D).
Turning to `Cc1cc(OC(F)F)cnc1C(=O)Nc1ccc(F)c([C@@]2(C)N=C(N)C3(CC3)S(=O)(=O)[C@@H]2F)c1` [Example 202, N-(3-((5S,6R)-8-amino-5-fluoro-6-methyl-4,4-dioxido-4-thia-7-azaspiro[2.5]oct-7-en-6-yl)-4-fluorophenyl)-5-(difluoromethoxy)-3-methyl-2-pyridinecarboxamide], the 50% inhibitory concentration (IC50) in experiment [1] (average IC50) stood at 0.0015 µM; in experiment [2] (Homo sapiens, HEK293, average IC50, HEK cells), 0.0036 µM; on Cathepsin D (Cat D), 96.7 µM.
As for `Cc1cc(C#N)cnc1Oc1ccc(F)c([C@]2(C)CS(=O)(=O)C(C)(C)C(N)=N2)c1` [Example 271, 6-(3-((3R)-5-amino-3,6,6-trimethyl-1,1-dioxido-3,6-dihydro-2H-1,4-thiazin-3-yl)-4-fluorophenoxy)-5-methyl-3-pyridinecarbonitrile], the IC50 in experiment [1] (average IC50, enzyme assay) stood at 0.549 µM; in experiment [2] (setting [4]) it was 0.474 µM; at Cathepsin D (Cat D), 540 µM.
For `C[C@]1(F)C(N)=N[C@](C)(c2cc(Nc3nccc4cc(C#N)cnc34)ccc2F)CS1(=O)=O` [Example 60, 8-((3-((3R,6R)-5-amino-6-fluoro-3,6-dimethyl-1,1-dioxido-3,6-dihydro-2H-1,4-thiazin-3-yl)-4-fluorophenyl)amino)-1,7-naphthyridine-3-carbonitrile], the 50% inhibitory concentration (IC50) is less than 0.002 µM in experiment [1], 0.0808 µM in experiment [2] (setting [5]) and 99.9 µM at Cathepsin D (Cat D).
As to `Cc1cc(C#N)cnc1C(=O)Nc1ccc(F)c([C@]2(CF)CS(=O)(=O)C3(CCC3)C(N)=N2)c1` [Example 368, N-(3-((7S)-9-amino-7-(fluoromethyl)-5,5-dioxido-5-thia-8-azaspiro[3.5]non-8-en-7-yl)-4-fluorophenyl)-5-cyano-3-methyl-2-pyridinecarboxamide], the concentration for half-maximal inhibition (IC50) in experiment [1] (average IC50, enzyme assay) was determined as 0.00064 µM; in experiment [2] (setting [3]) it was 0.0046 µM; on Cathepsin D (Cat D), 222 µM.
`CC1(C)C(N)=N[C@](C)(c2cc(Sc3ncccc3F)ccc2F)CS1(=O)=O` [Example 439, (5R)-5-(2-fluoro-5-((3-fluoro-2-pyridinyl)sulfanyl)phenyl)-2,2,5-trimethyl-5,6-dihydro-2H-1,4-thiazin-3-amine 1,1-dioxide]: the IC50 is 0.375 µM in experiment [1] (average IC50, enzyme assay); 0.99 µM in experiment [2] (setting [4]); 215 µM on Cathepsin D (Cat D).
Take `Cc1cc(Cl)cnc1C(=O)Nc1ccc(F)c([C@]2(C)CS(=O)(=O)C3(CC(F)(F)C3)C(N)=N2)c1` [Example 124, (R)—N-(3-(9-amino-2,2-difluoro-7-methyl-5,5-dioxido-5-thia-8-azaspiro[3.5]non-8-en-7-yl)-4-fluorophenyl)-5-chloro-3-methylpicolinamide]: the half-inhibitory concentration (IC50) in experiment [1] is less than 0.002 µM; in experiment [2] (Homo sapiens, HEK293), 0.0246 µM; at Cathepsin D (Cat D), 96.3 µM.
